Test results taken from a compilation of properties of binary mixtures (doi:10.1007/s10953-006-9073-6).

Assay: xn = mol fraction of the nth substance listed
Conditions: 298.15 K, 101 kPa

Compound	speed of sound (x2 = 0.2213)	speed of sound (x2 = 0.308)	speed of sound (x2 = 0.3852)	speed of sound (x2 = 0.5017)	speed of sound (x2 = 0.5976)	speed of sound (x2 = 0.6987)	speed of sound (x2 = 0.8012)	speed of sound (x2 = 0.8967)	speed of sound (x2 = 0.9504)	speed of sound (x2 = 0.1874)	speed of sound (x2 = 0.4815)	speed of sound (x2 = 0.6209)	speed of sound (x2 = 0.7217)	speed of sound (x2 = 0.8982)	speed of sound (x2 = 0.9373)
CCCC[n+]1ccn(C)c1.[Cl-] + O	1838.3 m/s	1828.2 m/s	1831.3 m/s	1845 m/s	1859.6 m/s	1872.8 m/s	1881.5 m/s	1853.7 m/s	1754.7 m/s	–	–	–	–	–	–
CCCC[n+]1ccn(C)c1.[Cl-] + CCO	–	–	–	–	–	–	–	–	–	1744.8 m/s	1598.2 m/s	1515 m/s	1443 m/s	1279.1 m/s	1232.5 m/s
